Data taken from patent US10479780B2, “Aminopyrazole derivatives” (Chugai Seiyaku Kabushiki Kaisha, priority 2015, dated 2019).

Legend:
Assay type in all cases: biochemical
human Yes1 enzyme = biological target: T1, human Yes1 enzyme (Homo sapiens, UniProt P07947); assay: Yes1 enzyme inhibitory activity (time-resolved fluorometry, biotinylated peptide phosphorylation); settings: biotinylated peptide phosphorylation, read-out: YES_IC50
T1 construct: made in house
In short: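 Inhibition was expressed against a compound-free control to give IC50, using TR-FRET read-out (Eu-cryptate anti-pTyr antibody, streptavidin-XL665).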

human Src enzyme = biological target: T2, human Src enzyme (Homo sapiens, UniProt P12931); assay: Src enzyme inhibitory activity (time-resolved fluorometry, biotinylated peptide phosphorylation); settings: biotinylated peptide phosphorylation, read-out: SRC_IC50
T2 construct: purchased Carna Biosciences, Inc. 08-173
T2 sequence (P12931 whole entry): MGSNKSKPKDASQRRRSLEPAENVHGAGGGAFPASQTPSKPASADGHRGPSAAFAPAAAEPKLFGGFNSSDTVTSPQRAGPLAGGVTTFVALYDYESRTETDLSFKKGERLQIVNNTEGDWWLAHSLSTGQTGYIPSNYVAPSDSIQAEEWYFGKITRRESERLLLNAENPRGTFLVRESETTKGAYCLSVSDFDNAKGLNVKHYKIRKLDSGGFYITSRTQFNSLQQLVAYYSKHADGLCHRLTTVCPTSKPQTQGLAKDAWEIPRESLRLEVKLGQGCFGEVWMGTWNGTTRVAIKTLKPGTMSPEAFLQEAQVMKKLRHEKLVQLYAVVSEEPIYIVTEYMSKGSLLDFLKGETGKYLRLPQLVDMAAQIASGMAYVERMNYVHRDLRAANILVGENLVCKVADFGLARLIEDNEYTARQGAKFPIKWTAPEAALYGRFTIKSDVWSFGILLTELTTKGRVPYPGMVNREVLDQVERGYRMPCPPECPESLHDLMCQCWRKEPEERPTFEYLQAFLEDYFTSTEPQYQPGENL
In short: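 Compounds were tested for blocking tyrosine phosphorylation of a biotinylated peptide substrate by recombinant human Src. Phosphorylated product was quantified by time-resolved fluorometry using europium cryptate and XL665 conjugates, and IC50 was calculated against the compound-free control.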

human Lck enzyme = biological target: T3, human Lck enzyme (Homo sapiens, UniProt P06239); assay: Lck enzyme inhibitory activity (time-resolved fluorometry, biotinylated peptide phosphorylation); settings: biotinylated peptide phosphorylation, read-out: LCK_IC50
T3 construct: purchased Carna Biosciences, Inc. 08-170
T3 sequence (P06239 whole entry): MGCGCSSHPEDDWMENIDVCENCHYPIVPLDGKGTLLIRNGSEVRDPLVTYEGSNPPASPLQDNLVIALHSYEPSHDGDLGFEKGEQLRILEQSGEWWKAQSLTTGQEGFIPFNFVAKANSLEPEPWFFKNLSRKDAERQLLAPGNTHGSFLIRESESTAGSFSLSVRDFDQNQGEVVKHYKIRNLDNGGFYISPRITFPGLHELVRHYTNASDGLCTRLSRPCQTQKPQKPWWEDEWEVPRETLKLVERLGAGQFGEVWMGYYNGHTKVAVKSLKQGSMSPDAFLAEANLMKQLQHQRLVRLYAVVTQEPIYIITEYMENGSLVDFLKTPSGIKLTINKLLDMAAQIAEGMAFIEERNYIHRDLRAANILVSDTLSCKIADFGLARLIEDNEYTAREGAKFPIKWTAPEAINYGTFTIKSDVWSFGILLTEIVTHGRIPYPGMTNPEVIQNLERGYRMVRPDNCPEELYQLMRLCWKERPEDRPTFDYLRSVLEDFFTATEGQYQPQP
In short: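 Readout pairs a europium cryptate-labelled anti-phosphotyrosine antibody with XL665-streptavidin, measured by time-resolved fluorescence. IC50 derived from percent inhibition against untreated controls.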

T1 sequence (P07947 whole entry): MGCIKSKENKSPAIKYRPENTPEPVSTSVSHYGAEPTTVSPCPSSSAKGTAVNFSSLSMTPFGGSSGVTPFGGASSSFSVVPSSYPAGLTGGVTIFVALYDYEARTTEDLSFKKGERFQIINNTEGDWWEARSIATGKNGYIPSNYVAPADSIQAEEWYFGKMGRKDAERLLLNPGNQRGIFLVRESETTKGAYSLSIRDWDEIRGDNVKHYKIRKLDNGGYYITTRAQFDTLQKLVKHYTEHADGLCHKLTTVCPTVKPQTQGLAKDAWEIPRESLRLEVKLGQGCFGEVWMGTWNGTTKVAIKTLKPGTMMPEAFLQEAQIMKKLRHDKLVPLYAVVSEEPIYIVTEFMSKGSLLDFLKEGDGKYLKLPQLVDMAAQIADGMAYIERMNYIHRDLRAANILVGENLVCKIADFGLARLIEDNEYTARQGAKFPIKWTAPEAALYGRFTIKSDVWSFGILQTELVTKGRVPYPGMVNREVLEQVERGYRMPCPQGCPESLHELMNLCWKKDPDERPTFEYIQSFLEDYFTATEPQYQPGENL

Row | SMILES | IC50 (human Yes1 enzyme) | IC50 (human Src enzyme) | IC50 (human Lck enzyme)
1 | Cc1cc2cc(C(=O)c3cnn(-c4cnc(Oc5c(F)cccc5F)cc4C)c3N)[nH]c2cc1N1CCC(N2CCOCC2)CC1 [Example 4-2-125, [5-amino-1-[6-(2,6-difluorophenoxy)-4-methylpyridin-3-yl]pyrazol-4-yl]-[5-methyl-6-(4-morpholin-4-ylpiperidin-1-yl)-1H-indol-2-yl]methanone] | 2.4 nM | 28 nM | 2.6 nM
2 | CCN(c1cc2[nH]c(C(=O)c3cnn(-c4cnc(Oc5c(F)cccc5F)cc4C)c3N)cc2cc1F)S(C)(=O)=O [Example 4-2-126] | 1.3 nM | 13 nM | 2 nM
3 | Cc1cc(Oc2c(F)cccc2F)ncc1-n1ncc(C(=O)c2cc3cc(F)c(N(C4CCOCC4)S(C)(=O)=O)cc3[nH]2)c1N [Example 4-2-127, N-[2-[5-amino-1-[6-(2,6-difluorophenoxy)-4-methylpyridin-3-yl]pyrazole-4-carbonyl]-5-fluoro-1H-indol-6-yl]-N-(oxan-4-yl)methanesulfonamide] | 1.3 nM | 23 nM | 3.7 nM
4 | Cc1cc(Oc2c(F)cccc2F)ncc1-n1ncc(C(=O)c2cc3cc(F)c(N(CCN4CCOCC4)S(C)(=O)=O)cc3[nH]2)c1N [Example 4-2-128, N-[2-[5-amino-1-[6-(2,6-difluorophenoxy)-4-methylpyridin-3-yl]pyrazole-4-carbonyl]-5-fluoro-1H-indol-6-yl]-N-(2-morpholin-4-ylethyl)methanesulfonamide] | 1.2 nM | 8.6 nM | 2.7 nM
5 | Cc1cc(Oc2ccccc2F)ncc1-n1ncc(C(=O)c2cc3cc(NS(C)(=O)=O)c(OCCN4CCOCC4)cc3[nH]2)c1N [Example 4-2-129] | 0.59 nM | 3.2 nM | 1.4 nM
6 | Cc1cc(Oc2ccccc2F)ncc1-n1ncc(C(=O)c2cc3cc(N(CCN4CCOCC4)S(C)(=O)=O)c(O)cc3[nH]2)c1N [Example 4-2-130] | 1.4 nM | 34 nM | 4.5 nM
7 | Cc1cc(Oc2cccc(F)c2F)cc(F)c1-n1ncc(C(=O)c2cc3cc(F)c(N)cc3[nH]2)c1N [Example 4-3-001, {5-amino-1-[4-(2,3-difluorophenoxy)-2-fluoro-6-methylphenyl]pyrazol-4-yl}-(6-amino-5-fluoro-1H-indol-2-yl)methanone] | 4.3 nM | 92 nM | 24 nM
8 | Cc1cc(Oc2c(F)cccc2F)ncc1-n1ncc(C(=O)c2cc3cc(OC(F)F)c(C4CCNCC4)cc3[nH]2)c1N [Example 4-4-001, (5-amino-1-(6-(2,6-difluorophenoxy)-4-methylpyridin-3-yl)-1H-pyrazol-4-yl)(5-(difluoromethoxy)-6-(piperidin-4-yl)-1H-indol-2-yl)methanone] | 6.3 nM | 21 nM | 8.2 nM
9 | Cc1cc(Oc2ccccc2F)ncc1-n1ncc(C(=O)c2cc3cc(F)c(NS(=O)(=O)N4CCOCC4)cc3[nH]2)c1N [Example 4-5-001, N-{2-{5-amino-1-[6-(2-fluorophenoxy)-4-methylpyridin-3-yl]pyrazole-4-carbonyl}-5-fluoro-1H-indol-6-yl}morpholine-4-sulfonamide] | 1.2 nM | 120 nM | 33 nM
10 | Cc1cc(Oc2ccccc2F)ccc1-n1ncc(C(=O)c2cc3cc(F)c(NS(=O)(=O)N4CCOCC4)cc3[nH]2)c1N [Example 4-5-002, N-[2-[5-amino-1-[4-(2-fluorophenoxy)-2-methylphenyl]pyrazole-4-carbonyl]-5-fluoro-1H-indol-6-yl]morpholine-4-sulfonamide] | 0.76 nM | 49 nM | 23 nM
11 | Cc1cc(Oc2ccccc2F)ccc1-n1ncc(C(=O)c2cc3cc(F)c(NS(=O)(=O)NC4CCOCC4)cc3[nH]2)c1N [Example 4-5-003, [5-amino-1-[4-(2-fluorophenoxy)-2-methylphenyl]pyrazol-4-yl]-[5-fluoro-6-(oxan-4-ylsulfamoylamino)-1H-indol-2-yl]methanone] | 0.67 nM | 29 nM | 11 nM
12 | Cc1cc(Oc2ccccc2F)ccc1-n1ncc(C(=O)c2cc3cc(F)c(NS(=O)(=O)NC4COC4)cc3[nH]2)c1N [Example 4-5-005, [5-amino-1-[4-(2-fluorophenoxy)-2-methylphenyl]pyrazol-4-yl]-[5-fluoro-6-(oxetan-3-ylsulfamoylamino)-1H-indol-2-yl]methanone] | 0.51 nM | 29 nM | 11 nM
13 | Cc1cc(Oc2cccc(F)c2F)cc(F)c1-n1ncc(C(=O)c2cc3cc(F)c(NS(=O)(=O)N4CCOCC4)cc3[nH]2)c1N [Example 4-5-011, N-[2-[5-amino-1-[4-(2,3-difluorophenoxy)-2-fluoro-6-methylphenyl]pyrazole-4-carbonyl]-5-fluoro-1H-indol-6-yl]morpholine-4-sulfonamide] | 1.6 nM | 110 nM | 65 nM
14 | Cc1cc(Oc2ccccc2F)ncc1-n1ncc(C(=O)c2cc3cc(F)c(NS(=O)(=O)NC4CCOCC4)cc3[nH]2)c1N [Example 4-5-012, [5-amino-1-[6-(2-fluorophenoxy)-4-methylpyridin-3-yl]pyrazol-4-yl]-[5-fluoro-6-(oxan-4-ylsulfamoylamino)-1H-indol-2-yl]methanone] | 1 nM | 78 nM | 12 nM
15 | Cc1cc(Oc2ccccc2F)ncc1-n1ncc(C(=O)c2cc3cc(F)c(NS(=O)(=O)NCCO)cc3[nH]2)c1N [Example 4-6-001, {5-amino-1-[6-(2-fluorophenoxy)-4-methylpyridin-3-yl]pyrazol-4-yl}-[5-fluoro-6-(2-hydroxyethylsulfamoylamino)-1H-indol-2-yl]methanone] | 0.92 nM | 70 nM | 13 nM

The next lines start with the values.

Row | IC50 (human Yes1 enzyme) | IC50 (human Src enzyme) | IC50 (human Lck enzyme) | SMILES
16 | 3.3 nM | 65 nM | 41 nM | Cc1cc(Oc2ccccc2F)ccc1-n1ncc(C(=O)c2cc3cc(F)c(NS(=O)(=O)NC(C)C)cc3[nH]2)c1N [Example 4-5-004, [5-amino-1-[4-(2-fluorophenoxy)-2-methylphenyl]pyrazol-4-yl]-[5-fluoro-6-(propan-2-ylsulfamoylamino)-1H-indol-2-yl]methanone]
17 | 6.8 nM | 140 nM | 62 nM | Cc1cc(Oc2ccccc2F)ccc1-n1ncc(C(=O)c2cc3cc(F)c(NS(=O)(=O)NC4CCC4)cc3[nH]2)c1N [Example 4-5-006, [5-amino-1-[4-(2-fluorophenoxy)-2-methylphenyl]pyrazol-4-yl]-[6-(cyclobutylsulfamoylamino)-5-fluoro-1H-indol-2-yl]methanone]
18 | 0.5 nM | 33 nM | 18 nM | COCCNS(=O)(=O)Nc1cc2[nH]c(C(=O)c3cnn(-c4ccc(Oc5ccccc5F)cc4C)c3N)cc2cc1F [Example 4-5-007, [5-amino-1-[4-(2-fluorophenoxy)-2-methylphenyl]pyrazol-4-yl]-[5-fluoro-6-(2-methoxyethylsulfamoylamino)-1H-indol-2-yl]methanone]
19 | 0.55 nM | 31 nM | 8.2 nM | Cc1cc(Oc2ccccc2F)ccc1-n1ncc(C(=O)c2cc3cc(F)c(NS(=O)(=O)NC4(C)COC4)cc3[nH]2)c1N [Example 4-5-008, [5-amino-1-[4-(2-fluorophenoxy)-2-methylphenyl]pyrazol-4-yl]-[5-fluoro-6-[(3-methyloxetan-3-yl)sulfamoylamino]-1H-indol-2-yl]methanone]
20 | 0.68 nM | 35 nM | 12 nM | CONS(=O)(=O)Nc1cc2[nH]c(C(=O)c3cnn(-c4ccc(Oc5ccccc5F)cc4C)c3N)cc2cc1F [Example 4-5-009, [5-amino-1-[4-(2-fluorophenoxy)-2-methylphenyl]pyrazol-4-yl]-[5-fluoro-6-(methoxysulfamoylamino)-1H-indol-2-yl]methanone]
21 | 1.8 nM | 34 nM | 22 nM | Cc1cc(Oc2ccccc2F)ccc1-n1ncc(C(=O)c2cc3cc(F)c(NS(=O)(=O)NC4CC4)cc3[nH]2)c1N [Example 4-5-010, [5-amino-1-[4-(2-fluorophenoxy)-2-methylphenyl]pyrazol-4-yl]-[6-(cyclopropylsulfamoylamino)-5-fluoro-1H-indol-2-yl]methanone]
22 | 0.35 nM | 16 nM | 4.6 nM | Cc1cc(Oc2ccccc2F)ccc1-n1ncc(C(=O)c2cc3cc(F)c(NS(=O)(=O)NCCO)cc3[nH]2)c1N [Example 4-6-002, [5-amino-1-[4-(2-fluorophenoxy)-2-methylphenyl]pyrazol-4-yl]-[5-fluoro-6-(2-hydroxyethylsulfamoylamino)-1H-indol-2-yl]methanone]
23 | 2.3 nM | 88 nM | 22 nM | Cc1cc(Oc2ccccc2F)ccc1-n1ncc(C(=O)c2cc3cc(F)c(NS(=O)(=O)NC(C)(C)CO)cc3[nH]2)c1N [Example 4-6-003, [5-amino-1-[4-(2-fluorophenoxy)-2-methylphenyl]pyrazol-4-yl]-[5-fluoro-6-[(1-hydroxy-2-methylpropan-2-yl)sulfamoylamino]-1H-indol-2-yl]methanone]
24 | 1.1 nM | 41 nM | 6.9 nM | Cc1cc(Oc2ccccc2F)ccc1-n1ncc(C(=O)c2cc3cc(F)c(NS(=O)(=O)NCC(C)(C)O)cc3[nH]2)c1N [Example 4-6-004, [5-amino-1-[4-(2-fluorophenoxy)-2-methylphenyl]pyrazol-4-yl]-[5-fluoro-6-[(2-hydroxy-2-methylpropyl)sulfamoylamino]-1H-indol-2-yl]methanone]
